Laboratory results: paper PMC9862026, “In Vivo Toxicity, Redox-Modulating Capacity and Intestinal Permeability of Novel Aroylhydrazone Derivatives as Anti-Tuberculosis Agents” (Pharmaceutics, 2022)

Columns and labels:
male Jcl:ICR mice [1] = test: Sub-acute toxicity, 14 days oral: complete blood count; format: in vivo; conditions: 50 mg/kg oral
Protocol: (§1) The sub-acute toxicity effects were assessed after repeated (14 days) oral administration to male mice. […] The experiments were performed with male Jcl: ICR mice at the same age of 6 weeks and weighing approximately 30–35 g, in which the substances were administered daily for 14 days orally with a gastric tube at approximately the same time of the day. The compounds were solubilized with Tween 80 (0.1%) in distilled water and administered orally in a volume of 0.1 mL per 10.0 g. Animals were observed daily for behavioral changes and signs of toxicity. All results were compared with the positive control isoniazid (INH).
(§2) Serum biochemical parameters were assessed as follows.

male Jcl:ICR mice [2] = test: Sub-acute toxicity, 14 days oral: serum biochemical parameters; format: in vivo; conditions: 50 mg/kg oral
Protocol: as §1, §2

liver of mice = test: Pathomorphological evaluation of liver; format: in vivo; conditions: 50 mg/kg oral, 14 days
Protocol: (§3) Tissues from the liver, kidney and small intestine of the mice from all groups were collected post-mortem and fixed in 10% buffered formalin for 48 h. fixed tissues were processed according to the classical paraffin method. The cutting of the paraffin blocks was performed using a paraffin rotary microtome Leica RM 2255 at a slice thickness of 5 µm. The sections were stained with hematoxylin and eosin (H&E). Histological changes were examined and imaged with a Leica DM2500 light microscope equipped with a Leica MC120HD digital camera and also with Euromex BioBlue (Belgium) digital camera

kidney of mice = test: Pathomorphological evaluation of kidney; format: in vivo; conditions: 50 mg/kg oral, 14 days
Protocol: as §3

small intestine of mice = test: Pathomorphological evaluation of small intestine; format: in vivo; conditions: 50 mg/kg oral, 14 days
Protocol: as §3

[3] = system: GSH in the liver homogenate; test: Total glutathione in liver homogenate; format: in vivo, mice; conditions: 50 mg/kg oral, 14 days
Protocol: as §2
According to Rahman et al. total glutathione (tGSH) concentration was determined. In the reaction between GSH and 5,5′-dithiobis-2-nitrobenzoic acid (DTNB), the rate of formation of colored substance, 5′-thio-2-nitrobenzoic acid (TNB), is proportional to the concentration of tGSH in the sample. The maximal absorption of colored TNB is at 412 nm. The concentration of tGSH was calculated using oxidized glutathione as a reference standard and was expressed as ng/mg protein.

[4] = system: SOD in the liver supernatant; test: SOD activity in liver supernatant; format: in vivo, mice; conditions: 50 mg/kg oral, 14 days
Protocol: as §2
SOD activity was measured by the method of Beauchamp and Fridovich. Superoxide anion radicals generated photochemically for 7 min, reduced nitro blue tetrazolium (NBT) obtaining insoluble formazan in violet color. The reduction of NBT inhibition in the presence of different enzyme concentrations was read at 560 nm vs. control of reaction mixture. The amount of enzyme performing 50% inhibition of NBT reduction is accepted as a unit of activity (U/mg protein).

[5] = system: Glutathione peroxidase in the liver supernatant; test: Glutathione peroxidase activity in liver supernatant; format: in vivo, mice; conditions: 50 mg/kg oral, 14 days
Protocol: as §2
The Glutathione Peroxidase Cellular Activity Assay Kit (Cat. No. CGP1) and Glutathione Reductase Assay Kit (Cat. No. GRSA) were used to measure the activities of glutathione-related enzymes.

[6] = GIT PAMPA intestinal permeability (Double-Sink protocol); format: in vitro ADME
Protocol: The intestinal permeability of isoniazid and the newly synthesized derivatives was measured by PAMPA Permeability Analyzer (pION Inc., Billerica, MA, USA) following the Double-Sink™ Protocol. PAMPA assay kits were purchased from pION Inc. According to the protocol, the donor compartment of the “sandwich” is loaded with compound solutions adjusted to three different pH values of 5.0, 6.2, and 7.4. The acceptor wells are filled with an ASB of fixed pH 7.4, containing chemical scavengers that simulate the effect of serum proteins. In the central circulation, pH 7.4 is constantly maintained, and the blood flow, as well as the serum proteins, support the one-directional process of absorption. Reference spectra (ketoprofen, antipyrine, and ranitidine) were used to assess the transfer of compounds from the donor to the acceptor phase. The permeation ability was estimated based on permeability coefficient values Pe (10^−6 cm/s), presented in logarithmic terms (−logPe). Values of −logPe < 5 were accepted as indicative of highly permeable compounds. When −logPe acquired values between 5 and 6, compounds were considered as medium permeable, and if −logPe > 6–as low permeable. Experiments were performed in triplicate and permeation coefficients Pe (−logPe values, respectively) are calculated using PAMPA Explorer Command Software (Version 3.8).

[7] = system: MDA in the liver homogenate; test: Endogenous MDA (spontaneous lipid peroxidation) in liver homogenate; conditions: 50 mg/kg oral, 14 days; vs controls
Protocol: On day 14, the animals were anesthetized with ketamine/ xylazine and decapitated. […] Livers were taken to assess oxidative stress and antioxidant status in the study groups.
For the in vivo experiments (spontaneous lipid peroxidation) the postnuclear homogenates of the liver (mg protein/mL) in 0.15 M KCl—10 mM potassium phosphate buffer, pH 7.2, were heated for 15 min at 100 °C in the presence of 40% TCA + 5N HCl + 2% thiobarbituric acid (2:1:2 v/v) for color developing. After cooling and centrifugation, the absorbance was read at 532 nm against dd H2O as blank. The values were expressed in nmoles malondialdehyde (MDA) per mg protein, with a molar extinction coefficient of 1.56 × 10^−5 M^−1cm^−1.

For `NNC(=O)c1ccncc1` [INH, isoniazid, reference compound], the HCT (male Jcl:ICR mice [1]) was 33.3 ± 2.1 %, the Hgb (male Jcl:ICR mice [1]) was 112 ± 2.2 g/L and the PLT (male Jcl:ICR mice [1]) was 789 ± 183 10^9/L. The RBC (male Jcl:ICR mice [1]) was 5.35 ± 0.2 × 10^12/L, the WBC (male Jcl:ICR mice [1]) was 9.9 ± 0.54 × 10^9/L and the “increase of leukocytes compared to controls” value (male Jcl:ICR mice [1]) was 70%. The “reduction in hematocrit compared to the control group” value (male Jcl:ICR mice [1]) was 20%, the “reduction in the level of erythrocytes compared to the control group” value (male Jcl:ICR mice [1]) was 28% and the “reduction in the level of hemoglobin compared to the control group” value (male Jcl:ICR mice [1]) was 21%. The “decrease of albumin compared to controls” value (male Jcl:ICR mice [2]) was 23%, the “decrease of total protein compared to controls” value (male Jcl:ICR mice [2]) was 26% and the “direct bilirubin higher than controls” value (male Jcl:ICR mice [2]) was 48%. The “increase of ALAT compared to control animals” value (male Jcl:ICR mice [2]) was 67%, the “increase of ASAT compared to control animals” value (male Jcl:ICR mice [2]) was 52% and the “increase of creatinine compared to controls” value (male Jcl:ICR mice [2]) was 29%. The “increase of urea compared to controls” value (male Jcl:ICR mice [2]) was 49%, the “total bilirubin higher than controls” value (male Jcl:ICR mice [2]) was 40% and the ALAT (male Jcl:ICR mice [2]; serum) was 96.6 ± 3.1 U/L. For the same compound, the ALB (male Jcl:ICR mice [2]; serum) was 21.6 ± 1.7 g/L, the ASAT (male Jcl:ICR mice [2]; serum) was 126 ± 5.2 U/L and the CREAT (male Jcl:ICR mice [2]; serum) was 126.6 ± 8.2 µmol/L. It also gave a D-Bil (male Jcl:ICR mice [2]; serum) of 6.5 ± 0.44 µmol/L, a GLU (male Jcl:ICR mice [2]; serum) of 6.4 ± 0.47 mmol/L and a T-Bil (male Jcl:ICR mice [2]; serum) of 12.0 ± 0.38 µmol/L. For the same compound, the TP (male Jcl:ICR mice [2]; serum) was 43.2 ± 3.1 g/L, the UA (male Jcl:ICR mice [2]; serum) was 196 ± 20.7 µmol/L and the UREA (male Jcl:ICR mice [2]; serum) was 13.6 ± 0.36 mmol/L. The “Lobular inflammatory process and hepatocyte loss” value (liver of mice) was “not reported”, the “signs related to initiated fibroblastic process (organ collagenization and fibrosis)” value (liver of mice) was “No signs” and the “Pathomorphological findings in the kidney” value (kidney of mice) was “the curved parts of the distal tubules have a lower upholstered epithelium, wide luminal segments, and preserved histological structure”. The “Pathomorphological findings in the small intestine” value (small intestine of mice) was “there were no defects in the epithelium, reaching and exceeding the muscular layer of the epithelium”, the villous dullness score (small intestine of mice) was 1 and the “level of total GSH in liver homogenate” value [3] was “decreased the level of total GSH”. For the same compound, the glutathione deficiency ([3]; vs control levels) was “about 30%”, the “increase of the activity of SOD in liver” value [4] was 25% and the “increase of the activity of GPx compared to controls” value [5] was 35%. The “−logPe, GIT PAMPA” value ([6]; at the given experimental conditions (all tested pH), impermeable) was > 6, the “−logPe, GIT PAMPA” value ([6]; donor pH = 5.0, acceptor pH 7.4, Pe in 10^−6 cm/s) was 6.226 and the “−logPe, GIT PAMPA” value ([6]; donor pH = 6.2, acceptor pH 7.4, Pe in 10^−6 cm/s) was 6.591. For the same compound, the “−logPe, GIT PAMPA” value ([6]; donor pH = 7.4, acceptor pH 7.4, Pe in 10^−6 cm/s) was 6.594 and the “increase of the level of MDA in liver homogenate” value [7] was “more than 35%”.
